Experimental findings from patent publication US20260317299A1, “PIKFYVE PROTEIN KINASE DEGRADATION AGENT AND USE THEREOF” (Shanghai Institute of Organic Chemistry, Chinese Academy of …, priority 2023, published 2026) are described below.

Molecules are shown by their SMILES.

The target in the test is T1, PIKfyve (Homo sapiens, UniProt Q9Y2I7).
T1 construct: endogenous in cells; host or cells: VCaP
T1 sequence (Q9Y2I7 whole entry): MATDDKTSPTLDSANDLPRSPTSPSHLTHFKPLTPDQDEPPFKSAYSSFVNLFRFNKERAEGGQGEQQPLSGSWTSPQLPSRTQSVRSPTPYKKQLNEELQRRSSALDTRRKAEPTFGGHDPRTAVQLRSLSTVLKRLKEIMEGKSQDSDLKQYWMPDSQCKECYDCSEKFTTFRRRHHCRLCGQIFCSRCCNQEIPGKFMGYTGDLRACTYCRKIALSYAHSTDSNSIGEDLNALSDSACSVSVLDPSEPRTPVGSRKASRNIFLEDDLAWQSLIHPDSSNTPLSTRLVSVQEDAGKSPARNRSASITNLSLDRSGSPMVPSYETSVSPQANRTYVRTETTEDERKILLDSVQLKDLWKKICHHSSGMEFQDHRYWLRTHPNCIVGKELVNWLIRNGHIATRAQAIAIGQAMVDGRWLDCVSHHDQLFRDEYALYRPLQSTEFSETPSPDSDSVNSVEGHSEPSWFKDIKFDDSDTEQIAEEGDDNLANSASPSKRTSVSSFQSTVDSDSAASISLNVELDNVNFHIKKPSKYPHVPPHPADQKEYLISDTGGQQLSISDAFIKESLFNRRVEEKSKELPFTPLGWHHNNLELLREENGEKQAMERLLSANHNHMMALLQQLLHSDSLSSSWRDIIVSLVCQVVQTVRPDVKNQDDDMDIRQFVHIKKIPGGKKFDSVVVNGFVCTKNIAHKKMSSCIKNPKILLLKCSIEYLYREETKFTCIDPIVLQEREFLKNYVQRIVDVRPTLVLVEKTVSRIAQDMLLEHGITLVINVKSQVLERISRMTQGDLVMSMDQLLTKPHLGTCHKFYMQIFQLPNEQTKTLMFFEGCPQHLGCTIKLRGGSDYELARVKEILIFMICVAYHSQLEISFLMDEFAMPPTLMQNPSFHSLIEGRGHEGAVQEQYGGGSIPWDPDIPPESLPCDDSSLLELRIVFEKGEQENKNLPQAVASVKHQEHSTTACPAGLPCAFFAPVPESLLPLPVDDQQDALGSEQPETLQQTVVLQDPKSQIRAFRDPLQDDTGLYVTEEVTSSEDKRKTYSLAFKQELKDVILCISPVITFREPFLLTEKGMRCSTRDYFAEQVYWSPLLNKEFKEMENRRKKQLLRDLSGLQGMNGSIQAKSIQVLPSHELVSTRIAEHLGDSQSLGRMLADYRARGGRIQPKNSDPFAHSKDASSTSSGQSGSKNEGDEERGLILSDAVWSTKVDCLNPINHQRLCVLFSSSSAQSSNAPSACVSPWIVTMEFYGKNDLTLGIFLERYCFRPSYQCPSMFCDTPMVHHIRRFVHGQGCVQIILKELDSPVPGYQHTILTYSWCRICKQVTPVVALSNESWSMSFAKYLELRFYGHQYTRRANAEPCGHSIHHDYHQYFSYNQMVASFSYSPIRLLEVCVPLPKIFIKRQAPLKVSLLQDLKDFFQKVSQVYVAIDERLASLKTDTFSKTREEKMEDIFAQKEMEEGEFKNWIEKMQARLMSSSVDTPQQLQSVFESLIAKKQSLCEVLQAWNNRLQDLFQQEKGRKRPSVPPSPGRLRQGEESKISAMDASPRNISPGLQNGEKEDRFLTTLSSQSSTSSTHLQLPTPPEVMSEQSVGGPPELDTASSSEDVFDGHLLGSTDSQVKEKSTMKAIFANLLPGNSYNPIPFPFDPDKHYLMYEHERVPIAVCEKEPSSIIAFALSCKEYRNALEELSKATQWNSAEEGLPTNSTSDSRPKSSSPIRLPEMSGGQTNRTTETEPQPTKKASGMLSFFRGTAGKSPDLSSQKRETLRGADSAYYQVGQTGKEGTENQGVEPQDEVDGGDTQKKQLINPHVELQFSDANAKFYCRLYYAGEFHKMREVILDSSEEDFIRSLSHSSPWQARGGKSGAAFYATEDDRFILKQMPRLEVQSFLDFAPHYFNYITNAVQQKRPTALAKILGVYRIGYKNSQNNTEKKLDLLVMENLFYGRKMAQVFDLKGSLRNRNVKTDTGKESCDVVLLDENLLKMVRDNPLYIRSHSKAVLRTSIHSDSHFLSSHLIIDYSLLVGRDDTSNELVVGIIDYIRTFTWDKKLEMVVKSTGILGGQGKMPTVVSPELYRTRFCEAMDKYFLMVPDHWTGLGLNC
In words: Degradation of PIKfyve proteins in VCaP tumor cells (24 h, Western blot). Format: cell-based. The conditions noted are these: 37° C., compared with DMSO control, WB, read-out: DC50 (concentration that achieves 50% degradation activity). On the procedure: Method: 200 μL of cells at a density of 5×10^6 cells/ml were inoculated into a 6-well plate, and then different concentrations of drugs were added. The cells were treated at 37° C. for 24 h. The […] was collected and washed with PBS twice. Then, 100-200 μL of 1×SDS lysate was added, and the cell lysate was collected into a centrifuge tube. The cells were disrupted ultrasonically for 10-20 sec, and boiled for 10 min. Protein samples were subjected to SDS-PAGE electrophoresis at a voltage of 90 V, transferred to PVDF membranes at 110 V, blocked with 5% BSA for 4 h, incubated with primary antibodies (PIKfyve, GAPDH) at 4° C. overnight, and incubated with secondary antibodies (anti-Rabbit IgG or anti-Mouse IgG) at room temperature. The membranes were washed with TBST buffer, developed with an ECL developing solution, and then imaged to obtain protein band signals, with single-concentration WB results as shown in FIG. 1. Compared with the DMSO control group, the concentration that achieves 50% degradation activity is defined as DC50.
(In western blotting, separated proteins are transferred to a membrane and probed.)
In the case of `Cc1cccc(-c2ccn(-c3cc(N4CCOCC4)nc(OCCc4ccc(N5CCN(CC6CCN(c7cc8c(cc7F)C(=O)N(C7CCC(=O)NC7=O)C8=O)CC6)CC5)cc4)n3)n2)c1` (stereo not drawn) [Example 91, 2-(2,6-Dioxopiperidin-3-yl)-5-fluoro-6-(4-((4-(4-(2-((4-morpholino-6-(3-(m-tolyl)-1H-pyrazol-1-yl)pyrimidin-2-yl)oxy)ethyl)phenyl)piperazin-1-yl)methyl)piperidin-1-yl)isoindoline-1,3-dione], the DC50 was 100 to 10000 nM.
For `Cc1cccc(-c2ccn(-c3cc(N4CCOCC4)nc(OCCc4ccc(N5CCN(C(=O)CC[C@H](NC(=O)[C@@H]6C[C@@H](O)CN6C(=O)[C@@H](NC(=O)C6(F)CC6)C(C)(C)C)c6ccc(-c7scnc7C)cc6)CC5)cc4)n3)n2)c1` [Example 76, (2S,4R)-1-((S)-2-(1-fluorocyclopropane-1-carboxamido)-3,3-dimethylbutanoyl)-4-hydroxy-N—((S)-1-(4-(4-methylthiazol-5-yl)phenyl)-4-(4-(4-(2-((4-morpholino-6-(3-(m-tolyl)-1H-pyrazol-1-yl)pyrimidin-2-yl)oxy)ethyl)phenyl)piperazin-1-yl)-4-oxobutyl)pyrrolidine-2-carboxamide] the value was 1 to 100 nM.
For `Cc1cccc(-c2ccn(-c3cc(N4CCOCC4)nc(OC4CCN(c5ccc(N6CCN(C(=O)C[C@H](NC(=O)[C@@H]7C[C@@H](O)CN7C(=O)[C@@H](NC(=O)C7(F)CC7)C(C)(C)C)c7ccc(-c8scnc8C)cc7)CC6)cc5)CC4)n3)n2)c1` [Example 84, (2S,4R)-1-((S)-2-(1-fluorocyclopropane-1-carboxamido)-3,3-dimethylbutanoyl)-4-hydroxy-N—((S)-1-(4-(4-methylthiazol-5-yl)phenyl)-3-(4-(4-(4-((4-morpholino-6-(3-(m-tolyl)-1H-pyrazol-1-yl)pyrimidin-2-yl)oxy)piperidin-1-yl)phenyl)piperazin-1-yl)-3-oxopropyl) pyrrolidine-2-carboxamide] the value was 1 to 100 nM; for `Cc1cccc(-c2ccn(-c3cc(N4CCOCC4)nc(OCCc4ccc(NC(=O)NC5CCN(C(=O)C[C@H](NC(=O)[C@@H]6C[C@@H](O)CN6C(=O)[C@@H](NC(=O)C6(F)CC6)C(C)(C)C)c6ccc(-c7scnc7C)cc6)CC5)cc4)n3)n2)c1` [Example 78, (2S,4R)-1-((S)-2-(1-fluorocyclopropane-1-carboxamido)-3,3-dimethylbutanoyl)-4-hydroxy-N—((S)-1-(4-(4-methylthiazol-5-yl)phenyl)-3-(4-(3-(4-(2-((4-morpholino-6-(3-(m-tolyl)-1H-pyrazol-1-yl)pyrimidin-2-yl)oxy)ethyl)phenyl)ureido)piperidin-1-yl)-3-oxopropyl) pyrrolidine-2-carboxamide], 1 to 100 nM.
As to `Cc1cccc(/C=N/Nc2cc(N3CCOCC3)nc(OCCc3ccc(NC(=O)CCCC(=O)N[C@H](C(=O)N4C[C@H](O)C[C@H]4C(=O)N[C@@H](C)c4ccc(-c5scnc5C)cc4)C(C)(C)C)cc3)n2)c1` [Example 45], the DC50 lay within 1 to 100 nM.
Take `Cc1cccc(/C=N/Nc2cc(N3CCOCC3)nc(OCCc3ccc(NC(=O)CCCCCCC(=O)Nc4ccc5c(c4)C(=O)N(C4CCC(=O)NC4=O)C5)cc3)n2)c1` (stereo not drawn) [Example 30, (E)-N^1-(2-(2,6-dioxopiperidin-3-yl)-3-oxoisoindol-5-yl)-N^8-(4-(2-((4-(2-(3-methylbenzylidene)hydrazino)-6-morpholinopyrimidin-2-yl)oxy)ethyl)phenyl)octanediamide]: the DC50 was 1 to 100 nM.
For `Cc1cccc(-c2ccn(-c3cc(N4CCOCC4)nc(OCCc4ccc(NC(=O)NC5CN(C(=O)C[C@H](NC(=O)[C@@H]6C[C@@H](O)CN6C(=O)[C@@H](NC(=O)C6(F)CC6)C(C)(C)C)c6ccc(-c7scnc7C)cc6)C5)cc4)n3)n2)c1` [Example 73, (2S,4R)-1-((S)-2-(1-fluorocyclopropane-1-carboxamido)-3,3-dimethylbutanoyl)-4-hydroxy-N—((S)-1-(4-(4-methylthiazol-5-yl)phenyl)-3-(3-(3-(4-(2-((4-morpholino-6-(3-(m-tolyl)-1H-pyrazol-1-yl)pyrimidin-2-yl)oxy)ethyl)phenyl)ureido)azetidin-1-yl)-3-oxopropyl) pyrrolidine-2-carboxamide] the value was 1 to 100 nM; for `Cc1cccc(-c2ccn(-c3cc(N4CCOCC4)nc(OC4CCN(c5ccc(NC(=O)NC6CCN(c7cc8c(cc7F)C(=O)N(C7CCC(=O)NC7=O)C8=O)CC6)cc5)CC4)n3)n2)c1` (stereo not drawn) [Example 92, 1-(1-(2-(2,6-Dioxopiperidin-3-yl)-6-fluoro-1,3-dioxoisoindolin-5-yl)piperidin-4-yl)-3-(4-(4-((4-morpholino-6-(3-(m-tolyl)-1H-pyrazol-1-yl)pyrimidin-2-yl)oxy)piperidin-1-yl)phenyl)urea], 100 to 10000 nM; for `Cc1cccc(/C=N/Nc2cc(N3CCOCC3)nc(OCCc3ccc(NC(=O)CCCCCCC(=O)N[C@H](C(=O)N4C[C@H](O)C[C@H]4C(=O)NCc4ccc(-c5scnc5C)cc4)C(C)(C)C)cc3)n2)c1` [Example 39, N^1—((S)-1-((2S,4R)-4-hydroxy-2-((4-(4-methylthiazol-5-yl)benzyl)carbamoyl)pyrrolidine-1-yl)-3,3-dimethyl-1-oxobutan-2-yl)-N^8-(4-(2-((4-(2-((E)-3-methylbenzylidene) hydrazino)-6-morpholinopyrimidin-2-yl)oxy)ethyl)phenyl)octanediamide], 1 to 100 nM.
For `Cc1cccc(/C=N/Nc2cc(N3CCOCC3)nc(OCCc3ccc(NC(=O)COc4cccc5c4C(=O)N(C4CCC(=O)NC4=O)C5=O)cc3)n2)c1` (stereo not drawn) [Example 1, (E)-2-((2-(2,6-dioxopiperidin-3-yl)-1,3-dioxoisoindolin-4-yl)oxy)-N-(4-(2-((4-(2-(3-methylbenzylidene)hydrazino)-6-morpholinopyrimidin-2-yl)oxy)ethyl)phenyl)acetamide] the value was 100 to 10000 nM; for `Cc1cccc(-c2ccn(-c3cc(N4CCOCC4)nc(OC4CCN(c5ccc(NC(=O)NC6CCN(C(=O)C[C@H](NC(=O)[C@@H]7C[C@@H](O)CN7C(=O)[C@@H](NC(=O)C7(F)CC7)C(C)(C)C)c7ccc(-c8scnc8C)cc7)CC6)cc5)CC4)n3)n2)c1` [Example 82, (2S,4R)-1-((S)-2-(1-fluorocyclopropane-1-carboxamido)-3,3-dimethylbutanoyl)-4-hydroxy-N—((S)-1-(4-(4-methylthiazol-5-yl)phenyl)-3-(4-(3-(4-(4-((4-morpholino-6-(3-(m-tolyl)-1H-pyrazol-1-yl)pyrimidin-2-yl)oxy)piperidin-1-yl)phenyl)ureido)piperidin-1-yl)-3-oxopropyl)pyrrolidine-2-carboxamide], 1 to 100 nM.
With `Cc1cccc(-c2ccn(-c3cc(N4CCOCC4)nc(OCCc4ccc(N5CCN(C(=O)C[C@H](NC(=O)[C@@H]6C[C@@H](O)CN6C(=O)[C@@H](NC(=O)C6(F)CC6)C(C)(C)C)c6ccc(-c7scnc7C)cc6)CC5)cc4)n3)n2)c1` [Example 75, (2S,4R)-1-((S)-2-(1-fluorocyclopropane-1-carboxamido)-3,3-dimethylbutanoyl)-4-hydroxy-N—((S)-1-(4-(4-methylthiazol-5-yl)phenyl)-3-(4-(4-(2-((4-morpholino-6-(3-(m-tolyl)-1H-pyrazol-1-yl)pyrimidin-2-yl)oxy)ethyl)phenyl)piperazin-1-yl)-3-oxopropyl)pyrrolidine-2-carboxamide], the DC50 was 1 to 100 nM.
In the case of `Cc1cccc(-c2ccn(-c3cc(N4CCOCC4)nc(OCCc4ccc(-c5ccc(NC(=O)CC[C@H](NC(=O)[C@@H]6C[C@@H](O)CN6C(=O)[C@@H](NC(=O)C6(F)CC6)C(C)(C)C)c6ccc(-c7scnc7C)cc6)cc5)cc4)n3)n2)c1` [Example 88, (2S,4R)-1-((S)-2-(1-fluorocyclopropane-1-carboxamido)-3,3-dimethylbutanoyl)-4-hydroxy-N—((S)-1-(4-(4-methylthiazol-5-yl)phenyl)-4-((4′-(2-((4-morpholino-6-(3-(m-tolyl)-1H-pyrazol-1-yl)pyrimidin-2-yl)oxy)ethyl)-[1,1′-biphenyl]-4-yl)amino)-4-oxobutyl)pyrrolidine-2-carboxamide], the DC50 lay within 1 to 100 nM.
For `Cc1cccc(-c2ccn(-c3cc(N4CCOCC4)nc(OC4CCN(c5ccc(NC(=O)NC6CN(C(=O)C[C@H](NC(=O)[C@@H]7C[C@@H](O)CN7C(=O)[C@@H](NC(=O)C7(F)CC7)C(C)(C)C)c7ccc(-c8scnc8C)cc7)C6)cc5)CC4)n3)n2)c1` [Example 80, (2S,4R)-1-((S)-2-(1-fluorocyclopropane-1-carboxamido)-3,3-dimethylbutanoyl)-4-hydroxy-N—((S)-1-(4-(4-methylthiazol-5-yl)phenyl)-3-(3-(3-(4-(4-((4-morpholino-6-(3-(m-tolyl)-1H-pyrazol-1-yl)pyrimidin-2-yl)oxy)piperidin-1-yl)phenyl)ureido)azetidin-1-yl)-3-oxopropyl)pyrrolidine-2-carboxamide], the DC50 fell in the range of 1 to 100 nM.
For `Cc1cccc(/C=N/Nc2cc(N3CCOCC3)nc(OCCc3ccc(NC(=O)CCCCC(=O)N[C@H](C(=O)N4C[C@H](O)C[C@H]4C(=O)NCc4ccc(-c5scnc5C)cc4)C(C)(C)C)cc3)n2)c1` [Example 38, N^1—((S)-1-((2S,4R)-4-hydroxy-2-((4-(4-methylthiazol-5-yl)benzyl)carbamoyl)pyrrolidine-1-yl)-3,3-dimethyl-1-oxobutan-2-yl)-N^6-(4-(2-((4-(2-((E)-3-methylbenzylidene) hydrazino)-6-morpholinopyrimidin-2-yl)oxy)ethyl)phenyl)adipamide] the value was 1 to 100 nM.
